Values of other authors as cited in patent US20230181675A1, “NOVEL FORMUATIONS” (ARECOR LIMITED, priority 2020, published 2023).

Settings: at 25° C.

| logK metal binding stability constant with respect to zinc ion binding | Structure (SMILES) |
| --- | --- |
| 4.93 | O=C(O)CC(O)(CC(=O)O)C(=O)O [Citrate] |
| 12.6 | O=C(O)CN(CCOCCOCCN(CC(=O)O)CC(=O)O)CC(=O)O [EGTA, ethyleneglycoltetraacetate] |

| Structure (SMILES) | logK metal binding stability constant with respect to zinc ion binding |
| --- | --- |
| O=C(O)CN(CCN(CC(=O)O)CC(=O)O)CC(=O)O [EDTA, ethylenediaminetetraacetate] | 14.5 |
